According to US7932290B2, “Method for the treatment of metabolic disorders” (Wellstat Biologics Corporation, priority 2003, dated 2011):

What was measured:
Test in all cases: Transcription activation potential, GAL4 luciferase reporter in C3A cells
Type in all cases: cell-based
[1] = molecular target: T1, Mouse PPARα LBD fusion protein (Mus musculus, UniProt P23204)
T1 sequence (P23204 239-466): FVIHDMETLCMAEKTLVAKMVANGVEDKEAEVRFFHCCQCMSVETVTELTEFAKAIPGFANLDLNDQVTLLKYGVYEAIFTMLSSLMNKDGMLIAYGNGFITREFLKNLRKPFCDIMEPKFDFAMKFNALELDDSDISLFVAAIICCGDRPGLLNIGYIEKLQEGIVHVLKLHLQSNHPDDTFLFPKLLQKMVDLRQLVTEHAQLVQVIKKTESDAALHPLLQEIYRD
Method: (§1) Cells were seeded in 24 well plates the day prior to transfection at 5×10^4−2×10^5 cells/well, depending upon cell type. Cells were transfected using Lipofectamine 2000 reagent from Invitrogen. A total of 0.8 μg DNA/well was added to 50 μL of Optimem Reduced Serum media (serum free; Gibco). Lipofectamine 2000 was added (2.5 μL/well) to another tube containing 50 μL of Optimem media. Plasmid DNA was added at a ratio of 4:3 (reporter:activator); where appropriate, salmon sperm DNA was substituted for activator expressing plasmid. The reporter plasmid used was pFR-Luc, which has the firefly luciferase gene under the control of a GAL4 UAS ([…]) containing promoter. The activator expressing plasmids contain yeast GAL4 DNA binding domain (dbd) fusion of either human PPARα ligand binding domain (LBD; a.a. 167-468) or human PPARγ LBD (a.a. 176-479). DNA constructs containing the mouse PPARα or PPARγ LBD fused to the GAL4 DNA binding domain were also used. The two solutions were incubated at room temperature for 5 min, and then combined. The combined solution was incubated at room temperature for approximately 30 min. Cells were washed once with PBS, and 100 μL of transfection mix added to each well. Plates were incubated at 37° C. in a 5% CO2 incubator for 4.5 hr, followed by aspiration of the transfection mix, with plates refed using EMEM complete media (supplemented with 10% FBS, 1× Glutamine). 24 hr post-transfection, plates were treated with the appropriate compounds in EMEM complete media, followed by washing once with PBS and addition of 100 μL 1× reporter lysis buffer/well (Promega) 24 hr after treatment. Plates went through one freeze/thaw cycle prior to analysis. Approximately 10 μL of lysate was added to 100 μL of firefly luciferase substrate, mixed by pipetting, and analyzed on a luminometer for 10 s using the integration function (relative luciferase units/RLU) or on a Microbeta Trilux (luciferase counts per second/LCPS). Each treatment was performed in triplicate, and in multiple, separate experiments.

[2] = molecular target: T2, Human PPARα LBD fusion protein (Homo sapiens, UniProt Q07869)
T2 construct: a.a; 167-468)
T2 sequence (Q07869 167-468): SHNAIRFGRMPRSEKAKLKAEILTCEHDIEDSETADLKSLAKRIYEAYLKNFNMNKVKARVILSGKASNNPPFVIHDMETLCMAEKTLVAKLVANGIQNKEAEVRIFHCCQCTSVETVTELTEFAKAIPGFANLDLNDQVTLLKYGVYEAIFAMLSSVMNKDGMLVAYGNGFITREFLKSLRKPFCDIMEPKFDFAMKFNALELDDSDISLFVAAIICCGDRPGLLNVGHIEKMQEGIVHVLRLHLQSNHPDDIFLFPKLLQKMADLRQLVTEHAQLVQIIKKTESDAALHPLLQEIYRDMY
Method: as §1

[3] = molecular target: T3, Mouse PPARγ LBD fusion protein (Mus musculus, UniProt P37238)
T3 sequence (P37238 238-503): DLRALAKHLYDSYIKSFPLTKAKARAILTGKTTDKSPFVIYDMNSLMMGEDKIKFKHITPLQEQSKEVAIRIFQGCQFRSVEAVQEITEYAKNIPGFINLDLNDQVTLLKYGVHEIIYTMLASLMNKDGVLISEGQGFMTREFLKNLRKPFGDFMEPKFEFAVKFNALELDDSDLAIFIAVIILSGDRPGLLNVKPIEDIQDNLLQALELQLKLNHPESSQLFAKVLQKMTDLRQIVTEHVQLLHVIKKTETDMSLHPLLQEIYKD
Method: (§2) Cells were seeded in 24 well plates the day prior to transfection at 5×10^4−2×10^5 cells/well, depending upon cell type. Cells were transfected using Lipofectamine 2000 reagent from Invitrogen. A total of 0.8 μg DNA/well was added to 50 μL of Optimem Reduced Serum media (serum free; Gibco). Lipofectamine 2000 was added (2.5 μL/well) to another tube containing 50 μL of Optimem media. Plasmid DNA was added at a ratio of 4:3 (reporter:activator); where appropriate, salmon sperm DNA was substituted for activator expressing plasmid. […] DNA constructs containing the mouse PPARα or PPARγ LBD fused to the GAL4 DNA binding domain were also used. The two solutions were incubated at room temperature for 5 min, and then combined. The combined solution was incubated at room temperature for approximately 30 min. Cells were washed once with PBS, and 100 μL of transfection mix added to each well. Plates were incubated at 37° C. in a 5% CO2 incubator for 4.5 hr, followed by aspiration of the transfection mix, with plates refed using EMEM complete media (supplemented with 10% FBS, 1× Glutamine). 24 hr post-transfection, plates were treated with the appropriate compounds in EMEM complete media, followed by washing once with PBS and addition of 100 μL 1× reporter lysis buffer/well (Promega) 24 hr after treatment. Plates went through one freeze/thaw cycle prior to analysis. Approximately 10 μL of lysate was added to 100 μL of firefly luciferase substrate, mixed by pipetting, and analyzed on a luminometer for 10 s using the integration function (relative luciferase units/RLU) or on a Microbeta Trilux (luciferase counts per second/LCPS). Each treatment was performed in triplicate, and in multiple, separate experiments.

[4] = system: Human PPARγ LBD fusion protein
Method: as §2

[5] = 100 μM test compound, Table 20b
[6] = 200 μM test compound, Table 20b

Structure (SMILES) | transcription activation potential (luciferase) ± standard deviation ([1]; 1 μM, Table 20a) | transcription activation potential (luciferase) ± standard deviation ([1]; 3 μM, Table 20a) | transcription activation potential (luciferase) ± standard deviation ([1]; 10 μM, Table 20a) | transcription activation potential (luciferase) ± standard deviation ([1]; 30 μM, Table 20a) | transcription activation potential (luciferase) ± standard deviation ([1]; 100 μM, Table 20a) | transcription activation potential (luciferase) ± standard deviation ([1]; 100 μM, Table 21a) | transcription activation potential (luciferase) ± standard deviation ([1]; 200 μM, Table 20a) | transcription activation potential (luciferase) ± standard deviation ([2]; 1 μM) | transcription activation potential (luciferase) ± standard deviation ([2]; 3 μM) | transcription activation potential (luciferase) ± standard deviation ([2]; 10 μM) | transcription activation potential (luciferase) ± standard deviation ([2]; 30 μM) | transcription activation potential (luciferase) ± standard deviation ([2]; 100 μM) | transcription activation potential (luciferase) ± standard deviation ([2]; 200 μM) | transcription activation potential (luciferase) ± standard deviation ([3]; 1 μM test compound, Table 20b) | transcription activation potential (luciferase) ± standard deviation ([3]; 1 μM, Table 21b) | transcription activation potential (luciferase) ± standard deviation ([3]; 3 μM test compound, Table 20b) | transcription activation potential (luciferase) ± standard deviation ([3]; 10 μM test compound, Table 20b) | transcription activation potential (luciferase) ± standard deviation ([3]; 10 μM, Table 21b) | transcription activation potential (luciferase) ± standard deviation ([3]; 30 μM test compound, Table 20b) | transcription activation potential (luciferase) ± standard deviation ([3]; 30 μM, Table 21b) | other results
Cc1cccc(C)c1COc1cccc(C(=O)CCC(=O)O)c1 [Compound BI, 4-(3-(2,6-Dimethylbenzyloxy)phenyl)-4-oxobutyric acid] | 14.67 ± 1.08 LCPS | 15.2 ± 2.78 LCPS | 15.1 ± 3.78 LCPS | 10.43 ± 1.81 LCPS | 15.37 ± 6.21 LCPS | 4421 ± 118 RLU | 18.6 ± 11.66 LCPS | 127.7 ± 7.1 LCPS | 128 ± 70.7 LCPS | 52.7 ± 8.2 LCPS | 55.4 ± 16.2 LCPS | 20.9 ± 13.1 LCPS | 31.1 ± 29.4 LCPS | 2.4 ± 2.26 LCPS | 746 ± 362 RLU | 2.6 ± 1.41 LCPS | 2.2 ± 1.57 LCPS | 479 ± 353 RLU | 4.9 ± 4.42 LCPS | 557 ± 639 RLU | transcription activation potential (luciferase) ± standard deviation ([3]; 3 μM, Table 21b): 174 ± 153 RLU; transcription activation potential (luciferase) ± standard deviation ([3]; 5 μM, Table 21b): 996 ± 855 RLU; transcription activation potential (luciferase) ± standard deviation ([3]; 7 μM, Table 21b): 220 ± 137 RLU; transcription activation potential (luciferase) ± standard deviation [3, 5]: 2.63 ± 1.96 LCPS; transcription activation potential (luciferase) ± standard deviation ([3]; 100 μM, Table 21b): 3330 ± 1848 RLU; transcription activation potential (luciferase) ± standard deviation [3, 6]: 65.77 ± 10.55 LCPS; transcription activation potential (luciferase) ± standard deviation ([4]; 1 μM test compound): 43.3 ± 11.6 LCPS; transcription activation potential (luciferase) ± standard deviation ([4]; 3 μM test compound): 26 ± 4.5 LCPS; transcription activation potential (luciferase) ± standard deviation ([4]; 10 μM test compound): 40.1 ± 13.5 LCPS; transcription activation potential (luciferase) ± standard deviation ([4]; 30 μM test compound): 22.9 ± 10.3 LCPS; transcription activation potential (luciferase) ± standard deviation ([4]; 100 μM test compound): 34.6 ± 15.6 LCPS; transcription activation potential (luciferase) ± standard deviation ([4]; 200 μM test compound): 227.3 ± 25.8 LCPS
Cc1cccc(C)c1COc1cccc(C(=O)O)c1 [Compound CG, 3-(2,6-Dimethylbenzyloxy)benzoic acid] | 4.43 ± 2.25 LCPS | 9.17 ± 3.72 LCPS | 7.87 ± 0.7 LCPS | 11.63 ± 5.01 LCPS | 11.8 ± 8.95 LCPS | 926 ± 1362 RLU | 80.3 ± 2 LCPS | 10.9 ± 11.6 LCPS | 19.1 ± 6.1 LCPS | 17.9 ± 5.2 LCPS | 38.2 ± 21.1 LCPS | 23.9 ± 5.3 LCPS | 159.4 ± 29.6 LCPS | 8.47 ± 5.01 LCPS | 634 ± 195 RLU | 14.8 ± 4.3 LCPS | 20.87 ± 4.1 LCPS | 405 ± 318 RLU | 55.4 ± 30.6 LCPS | 1562 ± 354 RLU | transcription activation potential (luciferase) ± standard deviation ([1]; 1 μM, Table 21a): 361 ± 398 RLU; transcription activation potential (luciferase) ± standard deviation ([1]; 3 μM, Table 21a): 706 ± 399 RLU; transcription activation potential (luciferase) ± standard deviation ([1]; 5 μM, Table 21a): 492 ± 160 RLU; transcription activation potential (luciferase) ± standard deviation ([1]; 7 μM, Table 21a): 652 ± 190 RLU; transcription activation potential (luciferase) ± standard deviation ([1]; 10 μM, Table 21a): 394 ± 84 RLU; transcription activation potential (luciferase) ± standard deviation ([1]; 30 μM, Table 21a): 651 ± 643 RLU; transcription activation potential (luciferase) ± standard deviation [3, 5]: 78.8 ± 23.1 LCPS; transcription activation potential (luciferase) ± standard deviation ([3]; 100 μM, Table 21b): 2555 ± 1609 RLU; transcription activation potential (luciferase) ± standard deviation [3, 6]: 101.2 ± 59.1 LCPS; transcription activation potential (luciferase) ± standard deviation ([4]; 1 μM test compound): 47.9 ± 7.2 LCPS; transcription activation potential (luciferase) ± standard deviation ([4]; 3 μM test compound): 73.6 ± 39.1 LCPS; transcription activation potential (luciferase) ± standard deviation ([4]; 10 μM test compound): 72.5 ± 28.2 LCPS; transcription activation potential (luciferase) ± standard deviation ([4]; 30 μM test compound): 205.6 ± 37.1 LCPS; transcription activation potential (luciferase) ± standard deviation ([4]; 100 μM test compound): 403.6 ± 86.1 LCPS; transcription activation potential (luciferase) ± standard deviation ([4]; 200 μM test compound): 598.1 ± 190.4 LCPS
